{
  "source": "patent US20050239656A1",
  "about": "“Pyridine compounds or salts thereof and herbicides containing the same” (priority 2002, published 2005)",
  "data": [
    {"test_system": "corn", "assay": "Test Example 2: soil surface treatment, upland pot test", "assay_type": "in vivo, Zea mays L.", "conditions": "active ingredient 500 g/ha, observed 20th to 28th day", "text": "(§1) Upland field soil was put into a 1/170,000 ha pot, and seed of various plants (barnyardgrass, crabgrass, green foxtail, redroot pigweed, prickly sida, velvetleaf, rice, wheat, corn, soybean) were sown. On the 1st day after the sowing, a wettable powder or emulsifiable concentrate having the compound of the present invention formulated in accordance with a usual formulation method, was weighed so that the active ingredient would be a predetermined amount, and diluted with water in an amount of 1,500 L/ha. The herbicide thus adjusted was applied by a small size sprayer for soil surface treatment. On the 20th to 28th days after the application of the herbicide, the growth of the respective plants was visually observed, and the herbicidal effects were evaluated by the growth controlling degrees (%) ranging from 0 (equivalent to the non-treated plot) to 100 (complete kill), whereby the results shown in Table 4, were obtained.", "units": {"Growth controlling degree (%) Corn": "%"}, "values": [
      {"smiles": "CC(C)C(c1cnccc1C(F)(F)F)N(C)C(=O)CC1C=CCC1", "note": "(stereo not shown) [I-183]", "Growth controlling degree (%) Corn": 10},
      {"smiles": "CC(C)C(c1cnccc1C(F)(F)F)N(C)C(=O)Cc1c(F)ccc(F)c1F", "note": "(stereo not shown) [Compound I-17]", "Growth controlling degree (%) Corn": 20},
      {"smiles": "CC(C)C(c1cnccc1C(F)(F)F)N(C)C(=O)SCc1ccccc1", "note": "(racemic) [I-113]", "Growth controlling degree (%) Corn": 20}
    ]},
    {"test_system": "prickly sida", "assay": "Test Example 2: soil surface treatment, upland pot test", "assay_type": "in vivo, Sida spinosa L.", "conditions": "active ingredient 500 g/ha, observed 20th to 28th day", "text": "as §1", "units": {"Growth controlling degree (%) Prickly sida": "%"}, "values": [
      {"smiles": "CC(C)C(c1cnccc1C(F)(F)F)N(C)C(=O)CC1C=CCC1", "note": "(stereo not shown) [I-183]", "Growth controlling degree (%) Prickly sida": 30},
      {"smiles": "CC(C)C(c1cnccc1C(F)(F)F)N(C)C(=O)Cc1c(F)ccc(F)c1F", "note": "(stereo not shown) [Compound I-17]", "Growth controlling degree (%) Prickly sida": 90},
      {"smiles": "CC(C)C(c1cnccc1C(F)(F)F)N(C)C(=O)SCc1ccccc1", "note": "(racemic) [I-113]", "Growth controlling degree (%) Prickly sida": 60}
    ]},
    {"test_system": "soybean", "assay": "Test Example 2: soil surface treatment, upland pot test", "assay_type": "in vivo, Glycine max Merr.", "conditions": "active ingredient 500 g/ha, observed 20th to 28th day", "text": "as §1", "units": {"Growth controlling degree (%) Soyabean": "%"}, "values": [
      {"smiles": "CC(C)C(c1cnccc1C(F)(F)F)N(C)C(=O)CC1C=CCC1", "note": "(stereo not shown) [I-183]", "Growth controlling degree (%) Soyabean": 10},
      {"smiles": "CC(C)C(c1cnccc1C(F)(F)F)N(C)C(=O)Cc1c(F)ccc(F)c1F", "note": "(stereo not shown) [Compound I-17]", "Growth controlling degree (%) Soyabean": 20},
      {"smiles": "CC(C)C(c1cnccc1C(F)(F)F)N(C)C(=O)SCc1ccccc1", "note": "(racemic) [I-113]", "Growth controlling degree (%) Soyabean": 10}
    ]},
    {"test_system": "crabgrass", "assay": "Test Example 2: soil surface treatment, upland pot test", "assay_type": "in vivo, Digitaria sanguinalis L.", "conditions": "active ingredient 500 g/ha, observed 20th to 28th day", "text": "as §1", "units": {"Growth controlling degree (%) Crabgrass": "%"}, "values": [
      {"smiles": "CC(C)C(c1cnccc1C(F)(F)F)N(C)C(=O)CC1C=CCC1", "note": "(stereo not shown) [I-183]", "Growth controlling degree (%) Crabgrass": 100},
      {"smiles": "CC(C)C(c1cnccc1C(F)(F)F)N(C)C(=O)Cc1c(F)ccc(F)c1F", "note": "(stereo not shown) [Compound I-17]", "Growth controlling degree (%) Crabgrass": 98},
      {"smiles": "CC(C)C(c1cnccc1C(F)(F)F)N(C)C(=O)SCc1ccccc1", "note": "(racemic) [I-113]", "Growth controlling degree (%) Crabgrass": 70}
    ]},
    {"test_system": "japanese bulrush", "assay": "Test Example 3: paddy pot test, application under submerged conditions", "assay_type": "in vivo, Scirpus juncoides", "conditions": "active ingredient 250 g/ha; submerged application at 0.5 leaf stage; visually observed 14 days after application; 0 = non-treated, 100 = complete kill", "how_it_was_run": "(§2)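 Paddy soil pots; seeds sown, lightly covered; flooded 0.5–1 cm in greenhouse; wapato tubers planted day 1–2; flood raised to 3–4 cm. Submerged pipette application at 0.5 leaf / primary leaf stage. Visual score day 14, 0–100%.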", "units": {"Growth controlling degree (%) Japanese bulrush": "%"}, "values": [
      {"smiles": "CC(C)C(c1cnccc1C(F)(F)F)N(C)C(=O)SCc1ccccc1", "note": "(racemic) [I-113]", "Growth controlling degree (%) Japanese bulrush": 30}
    ]},
    {"test_system": "japanese bulrush", "assay": "Test Example 3: paddy pot test, application under submerged conditions", "assay_type": "in vivo, Scirpus juncoides", "conditions": "active ingredient 500 g/ha; submerged application at 0.5 leaf stage; visually observed 14 days after application; 0 = non-treated, 100 = complete kill", "how_it_was_run": "as §2", "units": {"Growth controlling degree (%) Japanese bulrush": "%"}, "values": [
      {"smiles": "CC(C)C(c1cnccc1C(F)(F)F)N(C)C(=O)CC1C=CCC1", "note": "(stereo not shown) [I-183]", "Growth controlling degree (%) Japanese bulrush": 100},
      {"smiles": "CC(C)C(c1cnccc1C(F)(F)F)N(C)C(=O)Cc1c(F)ccc(F)c1F", "note": "(stereo not shown) [Compound I-17]", "Growth controlling degree (%) Japanese bulrush": 90}
    ]},
    {"test_system": "japanese ribbon wapato", "assay": "Test Example 3: paddy pot test, application under submerged conditions", "assay_type": "in vivo, Sagittaria pygniaea", "conditions": "active ingredient 500 g/ha; submerged application at primary leaf stage; visually observed 14 days after application; 0 = non-treated, 100 = complete kill", "how_it_was_run": "as §2", "units": {"Growth controlling degree (%) Japanese ribbon wapato": "%"}, "values": [
      {"smiles": "CC(C)C(c1cnccc1C(F)(F)F)N(C)C(=O)CC1C=CCC1", "note": "(stereo not shown) [I-183]", "Growth controlling degree (%) Japanese ribbon wapato": 70},
      {"smiles": "CC(C)C(c1cnccc1C(F)(F)F)N(C)C(=O)Cc1c(F)ccc(F)c1F", "note": "(stereo not shown) [Compound I-17]", "Growth controlling degree (%) Japanese ribbon wapato": 90}
    ]},
    {"test_system": "barnyardgrass", "assay": "Test Example 2: soil surface treatment, upland pot test", "assay_type": "in vivo, Echinochloa crus-galli L.", "conditions": "active ingredient 500 g/ha, observed 20th to 28th day", "text": "as §1", "units": {"Growth controlling degree (%) Barnyardgrass": "%"}, "values": [
      {"smiles": "CC(C)C(c1cnccc1C(F)(F)F)N(C)C(=O)CC1C=CCC1", "note": "(stereo not shown) [I-183]", "Growth controlling degree (%) Barnyardgrass": 100},
      {"smiles": "CC(C)C(c1cnccc1C(F)(F)F)N(C)C(=O)Cc1c(F)ccc(F)c1F", "note": "(stereo not shown) [Compound I-17]", "Growth controlling degree (%) Barnyardgrass": 100},
      {"smiles": "CC(C)C(c1cnccc1C(F)(F)F)N(C)C(=O)SCc1ccccc1", "note": "(racemic) [I-113]", "Growth controlling degree (%) Barnyardgrass": 60}
    ]},
    {"test_system": "redroot pigweed", "assay": "Test Example 2: soil surface treatment, upland pot test", "assay_type": "in vivo, Amaranthus retroflexus L.", "conditions": "active ingredient 500 g/ha, observed 20th to 28th day", "text": "as §1", "units": {"Growth controlling degree (%) Redroot pigweed": "%"}, "values": [
      {"smiles": "CC(C)C(c1cnccc1C(F)(F)F)N(C)C(=O)CC1C=CCC1", "note": "(stereo not shown) [I-183]", "Growth controlling degree (%) Redroot pigweed": 95},
      {"smiles": "CC(C)C(c1cnccc1C(F)(F)F)N(C)C(=O)Cc1c(F)ccc(F)c1F", "note": "(stereo not shown) [Compound I-17]", "Growth controlling degree (%) Redroot pigweed": 50},
      {"smiles": "CC(C)C(c1cnccc1C(F)(F)F)N(C)C(=O)SCc1ccccc1", "note": "(racemic) [I-113]", "Growth controlling degree (%) Redroot pigweed": 70}
    ]},
    {"test_system": "rice (var. Nihonbare)", "assay": "Test Example 3: paddy pot test, transplanted rice", "assay_type": "in vivo, Oryza sativa L.", "conditions": "active ingredient 250 g/ha, applied 4th day after transplantation, visually observed 21st day after application, 0 = non-treated, 100 = complete kill", "how_it_was_run": "(§3)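 Visual crop-injury rating (0 = as untreated, 100 = complete kill, %) taken 21 days post-application. Treatment: formulated compound, water-diluted, pipetted into 3–4 cm flood water at a preset active-ingredient dose, 4 days after transplanting 2-leaf Nihonbare rice 3 cm deep in puddled paddy soil.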", "units": {"Growth controlling degree (%) Rice": "%"}, "values": [
      {"smiles": "CC(C)C(c1cnccc1C(F)(F)F)N(C)C(=O)SCc1ccccc1", "note": "(racemic) [I-113]", "Growth controlling degree (%) Rice": 0}
    ]},
    {"test_system": "rice (var. Nihonbare)", "assay": "Test Example 3: paddy pot test, transplanted rice", "assay_type": "in vivo, Oryza sativa L.", "conditions": "active ingredient 500 g/ha, applied 4th day after transplantation, visually observed 21st day after application, 0 = non-treated, 100 = complete kill", "how_it_was_run": "as §3", "units": {"Growth controlling degree (%) Rice": "%"}, "values": [
      {"smiles": "CC(C)C(c1cnccc1C(F)(F)F)N(C)C(=O)CC1C=CCC1", "note": "(stereo not shown) [I-183]", "Growth controlling degree (%) Rice": 10},
      {"smiles": "CC(C)C(c1cnccc1C(F)(F)F)N(C)C(=O)Cc1c(F)ccc(F)c1F", "note": "(stereo not shown) [Compound I-17]", "Growth controlling degree (%) Rice": 35}
    ]},
    {"test_system": "velvetleaf", "assay": "Test Example 2: soil surface treatment, upland pot test", "assay_type": "in vivo, Abutilon theophrasti MEDIC.", "conditions": "active ingredient 500 g/ha, observed 20th to 28th day", "text": "as §1", "units": {"Growth controlling degree (%) Velvetleaf": "%"}, "values": [
      {"smiles": "CC(C)C(c1cnccc1C(F)(F)F)N(C)C(=O)CC1C=CCC1", "note": "(stereo not shown) [I-183]", "Growth controlling degree (%) Velvetleaf": 50},
      {"smiles": "CC(C)C(c1cnccc1C(F)(F)F)N(C)C(=O)Cc1c(F)ccc(F)c1F", "note": "(stereo not shown) [Compound I-17]", "Growth controlling degree (%) Velvetleaf": 80},
      {"smiles": "CC(C)C(c1cnccc1C(F)(F)F)N(C)C(=O)SCc1ccccc1", "note": "(racemic) [I-113]", "Growth controlling degree (%) Velvetleaf": 60}
    ]},
    {"test_system": "green foxtail", "assay": "Test Example 2: soil surface treatment, upland pot test", "assay_type": "in vivo, Setaria viridis L.", "conditions": "active ingredient 500 g/ha, observed 20th to 28th day", "text": "as §1", "units": {"Growth controlling degree (%) Green foxtail": "%"}, "values": [
      {"smiles": "CC(C)C(c1cnccc1C(F)(F)F)N(C)C(=O)CC1C=CCC1", "note": "(stereo not shown) [I-183]", "Growth controlling degree (%) Green foxtail": 100},
      {"smiles": "CC(C)C(c1cnccc1C(F)(F)F)N(C)C(=O)Cc1c(F)ccc(F)c1F", "note": "(stereo not shown) [Compound I-17]", "Growth controlling degree (%) Green foxtail": 100},
      {"smiles": "CC(C)C(c1cnccc1C(F)(F)F)N(C)C(=O)SCc1ccccc1", "note": "(racemic) [I-113]", "Growth controlling degree (%) Green foxtail": 95}
    ]},
    {"test_system": "barnyardgrass", "assay": "Test Example 3: paddy pot test, application under submerged conditions", "assay_type": "in vivo, Echinochloa crus-galli L.", "conditions": "active ingredient 250 g/ha; submerged application at 0.5 leaf stage; visually observed 14 days after application; 0 = non-treated, 100 = complete kill", "how_it_was_run": "as §2", "units": {"Growth controlling degree (%) Barnyardgrass": "%"}, "values": [
      {"smiles": "CC(C)C(c1cnccc1C(F)(F)F)N(C)C(=O)SCc1ccccc1", "note": "(racemic) [I-113]", "Growth controlling degree (%) Barnyardgrass": 95}
    ]},
    {"test_system": "barnyardgrass", "assay": "Test Example 3: paddy pot test, application under submerged conditions", "assay_type": "in vivo, Echinochloa crus-galli L.", "conditions": "active ingredient 500 g/ha; submerged application at 0.5 leaf stage; visually observed 14 days after application; 0 = non-treated, 100 = complete kill", "how_it_was_run": "as §2", "units": {"Growth controlling degree (%) Barnyardgrass": "%"}, "values": [
      {"smiles": "CC(C)C(c1cnccc1C(F)(F)F)N(C)C(=O)CC1C=CCC1", "note": "(stereo not shown) [I-183]", "Growth controlling degree (%) Barnyardgrass": 100}
    ]},
    {"test_system": "rice", "assay": "Test Example 2: soil surface treatment, upland pot test", "assay_type": "in vivo, Oryza sativa L.", "conditions": "active ingredient 500 g/ha, observed 20th to 28th day", "text": "as §1", "units": {"Growth controlling degree (%) Rice": "%"}, "values": [
      {"smiles": "CC(C)C(c1cnccc1C(F)(F)F)N(C)C(=O)CC1C=CCC1", "note": "(stereo not shown) [I-183]", "Growth controlling degree (%) Rice": 60},
      {"smiles": "CC(C)C(c1cnccc1C(F)(F)F)N(C)C(=O)Cc1c(F)ccc(F)c1F", "note": "(stereo not shown) [Compound I-17]", "Growth controlling degree (%) Rice": 30},
      {"smiles": "CC(C)C(c1cnccc1C(F)(F)F)N(C)C(=O)SCc1ccccc1", "note": "(racemic) [I-113]", "Growth controlling degree (%) Rice": 30}
    ]}
  ]
}
